Data from PubChem BioAssay (NCI).
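Values below derive from 48-hour exposures of cells grown in 96-well plates, with endpoints linearly interpolated between the two concentrations bracketing the appropriate inhibition level. GI50 is the concentration that inhibits growth by half. TGI: concentration producing complete growth inhibition.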

Experiments:
Assay in all cases: NCI-60 cell line screen, 48 h
K-562 leukemia = test system: K-562 leukemia
KM12 colon = test system: KM12 colon
MOLT-4 leukemia = test system: MOLT-4 leukemia
SK-MEL-28 melanoma = test system: SK-MEL-28 melanoma
A498 renal = test system: A498 renal
IGROV1 ovarian = test system: IGROV1 ovarian
M14 melanoma = test system: M14 melanoma
TK-10 renal = test system: TK-10 renal
OVCAR-5 ovarian = test system: OVCAR-5 ovarian
COLO 205 colon = test system: COLO 205 colon
NCI-H460 lung = test system: NCI-H460 lung
HOP-92 NSCLC = test system: HOP-92 NSCLC
HCT-116 colon = test system: HCT-116 colon
RXF 393 renal = test system: RXF 393 renal
SNB-19 CNS = test system: SNB-19 CNS
UACC-62 melanoma = test system: UACC-62 melanoma
OVCAR-3 ovarian = test system: OVCAR-3 ovarian
ACHN renal = test system: ACHN renal
SNB-75 CNS = test system: SNB-75 CNS
SK-OV-3 ovarian = test system: SK-OV-3 ovarian
HS 578T breast = test system: HS 578T breast
SF-295 CNS = test system: SF-295 CNS
SR leukemia = test system: SR leukemia
PC-3 prostate = test system: PC-3 prostate
SF-268 CNS = test system: SF-268 CNS
SN12C renal = test system: SN12C renal
SK-MEL-5 melanoma = test system: SK-MEL-5 melanoma
NCI/ADR-RES ovarian = test system: NCI/ADR-RES ovarian
OVCAR-8 ovarian = test system: OVCAR-8 ovarian
T-47D breast = test system: T-47D breast
MALME-3M melanoma = test system: MALME-3M melanoma
RPMI-8226 leukemia = test system: RPMI-8226 leukemia
LOX IMVI melanoma = test system: LOX IMVI melanoma
A549 NSCLC = test system: A549 NSCLC
MDA-MB-435 = test system: MDA-MB-435
EKVX NSCLC = test system: EKVX NSCLC
CCRF-CEM leukemia = test system: CCRF-CEM leukemia
SF-539 CNS = test system: SF-539 CNS
NCI-H522 lung = test system: NCI-H522 lung
NCI-H226 lung = test system: NCI-H226 lung
SW-620 colon = test system: SW-620 colon
UACC-257 melanoma = test system: UACC-257 melanoma
786-0 renal = test system: 786-0 renal
HL-60(TB) leukemia = test system: HL-60(TB) leukemia
HT29 colon = test system: HT29 colon
CAKI-1 renal = test system: CAKI-1 renal
DU-145 prostate = test system: DU-145 prostate
BT-549 breast = test system: BT-549 breast
U251 CNS = test system: U251 CNS
SK-MEL-2 melanoma = test system: SK-MEL-2 melanoma
HOP-62 NSCLC = test system: HOP-62 NSCLC
MDA-MB-231 breast = test system: MDA-MB-231 breast
HCC-2998 colon = test system: HCC-2998 colon
NCI-H23 lung = test system: NCI-H23 lung
HCT-15 colon = test system: HCT-15 colon
MCF7 breast = test system: MCF7 breast
OVCAR-4 ovarian = test system: OVCAR-4 ovarian

SMILES: CC[C@]12C=CCN3CC[C@@]4(c5ccc(OC)cc5N(C)[C@H]4[C@@](O)(C(=O)OC)[C@@H]1OC(=O)CCC(=O)O[C@H]1CC[C@H]4[C@@H]5CCC6=CC(=O)CC[C@@H]6[C@H]5CC[C@]14C)[C@@H]32
- GI50 (K-562 leukemia): 1820 nM
- TGI (K-562 leukemia): > 50000 nM
- GI50 (KM12 colon): 1880 nM
- TGI (KM12 colon): > 50000 nM
- GI50 (MOLT-4 leukemia): 1550 nM
- TGI (MOLT-4 leukemia): > 50000 nM
- GI50 (SK-MEL-28 melanoma): 2170 nM
- TGI (SK-MEL-28 melanoma): > 50000 nM
- GI50 (A498 renal): 1380 nM
- TGI (A498 renal): 9420 nM
- GI50 (IGROV1 ovarian): 973 nM
- TGI (IGROV1 ovarian): 3130 nM
- GI50 (M14 melanoma): 1920 nM
- TGI (M14 melanoma): > 50000 nM
- GI50 (TK-10 renal): 1910 nM
- TGI (TK-10 renal): > 50000 nM
- GI50 (OVCAR-5 ovarian): 1900 nM
- TGI (OVCAR-5 ovarian): > 50000 nM
- GI50 (COLO 205 colon): 941 nM
- TGI (COLO 205 colon): 1940 nM
- GI50 (NCI-H460 lung): 3010 nM
- TGI (NCI-H460 lung): > 50000 nM
- GI50 (HOP-92 NSCLC): 1070 nM
- TGI (HOP-92 NSCLC): 4080 nM
- GI50 (HCT-116 colon): 1550 nM
- TGI (HCT-116 colon): > 50000 nM
- GI50 (RXF 393 renal): 1330 nM
- TGI (RXF 393 renal): 4210 nM
- GI50 (SNB-19 CNS): 2310 nM
- TGI (SNB-19 CNS): > 50000 nM
- GI50 (UACC-62 melanoma): 1120 nM
- TGI (UACC-62 melanoma): 3130 nM
- GI50 (OVCAR-3 ovarian): 1730 nM
- TGI (OVCAR-3 ovarian): 31900 nM
- GI50 (ACHN renal): 1570 nM
- TGI (ACHN renal): > 50000 nM
- GI50 (SNB-75 CNS): 1080 nM
- TGI (SNB-75 CNS): 31400 nM
- GI50 (SK-OV-3 ovarian): 2040 nM
- TGI (SK-OV-3 ovarian): > 50000 nM
- GI50 (HS 578T breast): 2380 nM
- TGI (HS 578T breast): > 50000 nM
- GI50 (SF-295 CNS): 1690 nM
- TGI (SF-295 CNS): > 50000 nM
- GI50 (SR leukemia): 1520 nM
- TGI (SR leukemia): > 50000 nM
- GI50 (PC-3 prostate): 996 nM
- TGI (PC-3 prostate): > 50000 nM
- GI50 (SF-268 CNS): 2170 nM
- TGI (SF-268 CNS): > 50000 nM
- GI50 (SN12C renal): 1640 nM
- TGI (SN12C renal): > 50000 nM
- GI50 (SK-MEL-5 melanoma): 990 nM
- TGI (SK-MEL-5 melanoma): 2100 nM
- GI50 (NCI/ADR-RES ovarian): 1690 nM
- TGI (NCI/ADR-RES ovarian): > 50000 nM
- GI50 (OVCAR-8 ovarian): 2240 nM
- TGI (OVCAR-8 ovarian): > 50000 nM
- GI50 (T-47D breast): 1790 nM
- TGI (T-47D breast): > 50000 nM
- GI50 (MALME-3M melanoma): 1640 nM
- TGI (MALME-3M melanoma): 21100 nM
- GI50 (RPMI-8226 leukemia): 1070 nM
- TGI (RPMI-8226 leukemia): 3110 nM
- GI50 (LOX IMVI melanoma): 1510 nM
- TGI (LOX IMVI melanoma): 4630 nM
- GI50 (A549 NSCLC): 1640 nM
- TGI (A549 NSCLC): > 50000 nM
- GI50 (MDA-MB-435): 1930 nM
- TGI (MDA-MB-435): > 50000 nM
- GI50 (EKVX NSCLC): 1700 nM
- TGI (EKVX NSCLC): > 50000 nM
- GI50 (CCRF-CEM leukemia): 1660 nM
- TGI (CCRF-CEM leukemia): > 50000 nM
- GI50 (SF-539 CNS): 1750 nM
- TGI (SF-539 CNS): 7210 nM
- GI50 (NCI-H522 lung): 1800 nM
- TGI (NCI-H522 lung): > 50000 nM
- GI50 (NCI-H226 lung): 2070 nM
- TGI (NCI-H226 lung): > 50000 nM
- GI50 (SW-620 colon): 2120 nM
- TGI (SW-620 colon): > 50000 nM
- GI50 (UACC-257 melanoma): 2650 nM
- TGI (UACC-257 melanoma): > 50000 nM
- GI50 (786-0 renal): 1990 nM
- TGI (786-0 renal): > 50000 nM
- GI50 (HL-60(TB) leukemia): 1070 nM
- TGI (HL-60(TB) leukemia): 2570 nM
- GI50 (HT29 colon): 1600 nM
- TGI (HT29 colon): 11400 nM
- GI50 (CAKI-1 renal): 1560 nM
- TGI (CAKI-1 renal): > 50000 nM
- GI50 (DU-145 prostate): 2730 nM
- TGI (DU-145 prostate): > 50000 nM
- GI50 (BT-549 breast): 1620 nM
- TGI (BT-549 breast): 9380 nM
- GI50 (U251 CNS): 1910 nM
- TGI (U251 CNS): > 50000 nM
- GI50 (SK-MEL-2 melanoma): 1240 nM
- TGI (SK-MEL-2 melanoma): 2850 nM
- GI50 (HOP-62 NSCLC): 2400 nM
- TGI (HOP-62 NSCLC): > 50000 nM
- GI50 (MDA-MB-231 breast): 2210 nM
- TGI (MDA-MB-231 breast): > 50000 nM
- GI50 (HCC-2998 colon): 1980 nM
- TGI (HCC-2998 colon): > 50000 nM
- GI50 (NCI-H23 lung): 1980 nM
- TGI (NCI-H23 lung): > 50000 nM
- GI50 (HCT-15 colon): 1510 nM
- TGI (HCT-15 colon): > 50000 nM
- GI50 (MCF7 breast): 1520 nM
- TGI (MCF7 breast): > 50000 nM
- GI50 (OVCAR-4 ovarian): 1790 nM
- TGI (OVCAR-4 ovarian): > 50000 nM
